# Marks after values point to notes of the source that are not given here.
# Assays:
# Assay type in all cases: in vivo, domestic healthy male white pigs
# [1] = test system: model of cardiac arrest and resuscitation; assay: Outcomes of cardiopulmonary resuscitation and cardiac/cerebral perfusion in pig model of cardiac arrest and resuscitation
# Protocol: (§1) • 1. All animals started fasting without water deprivation 12 h before experiment. • 2. The experimental animals were firstly intramuscularly injected with midazolam by 0.4-0.5 mg/kg for induced anesthesia, connected to an electrocardiogram monitor, then injected with propofol by 2 mg/kg through ear vein for general anesthesia, and afterwards maintained in an anesthetic state through infusing 4 mg/kg/h via the vein. • 3. Endotracheal intubation, monitoring of partial pressure of end-tidal carbon dioxide (ETCO2), and mechanical ventilation were rapidly carried out, wherein ventilation parameters were an intermittent positive pressure ventilation (IPPV) mode, with oxygen concentration of 21%, tidal volume of 10 ml/kg, and positive end-expiratory pressure of 0 mmHg, and ETCO2 was maintained in a normal physiological range of 35-40 mmHg by adjusting respiratory frequency. • 4. Right femoral artery and vein were exposed by operation, and Swan-Ganz catheters were respectively disposed into thoracic aorta and right atrium, wherein the former was used to monitor aortic blood pressure and collect an arterial blood sample, and the catheter main chamber of the latter was used to monitor right atrial pressure and body temperature and collect a venous blood sample, a catheter side chamber was used to infuse a therapeutic medicine, and calculate the level of coronary perfusion pressure (CPP) according to the difference between decompression diastolic aortic and time-coincident right atrial pressures. • 5. Right external jugular vein was exposed by operation, and an inducing electrode for ventricular fibrillation was disposed into right ventricle to induce ventricular fibrillation later. • 6. Right internal jugular vein and left femoral artery were exposed by operation, a central venous catheter and a thermodilution arterial catheter were respectively disposed therein, and the two were connected to a pulse indication continuous cardiac output (PiCCO) monitor, for monitoring the changes of cardiac function including stroke volume (SV) and global ejection fraction (GEF). • 7. Right carotid artery was exposed by operation, superficial fascia was stripped off, a carotid blood flow sensor was arranged, and then a blood flow velocity ultrasonic recorder was connected to monitor the change of carotid blood flow (CBF) in real time. • 8. The animals' forehead hair was shaved off, to expose forehead skin. The forehead skin was cleaned with alcohol, and attached with a cerebral oxygen monitoring probe, and then a cerebral oxygen monitor was attached to monitor the change of regional cerebral oxygen saturation (rSO2) in real time. • 9. The body temperature of the animals was maintained at a normal temperature of about 38° C. all the time by using a temperature control blanket.
# • 1. Setting model conditions: 8 min of cardiac arrest and 8 min of cardiopulmonary resuscitation. • 2. Cardiac arrest method: inducing ventricular fibrillation by right ventricular electrode discharge, and observing for 8 min without intervention. • 3. Cardiopulmonary resuscitation method: • 1) continuous manual external chest compression; • 2) mechanical ventilation was carried out by using a respirator (parameters were IPPV (intermittent positive pressure ventilation) mode, with oxygen concentration of 100%, tidal volume of 7 ml/kg, respiratory frequency of 10 times/min, and positive end-expiratory pressure of 0 mmHg); • 3) adrenalin: when cardiopulmonary resuscitation was performed for 2 min, adrenalin was given by 20 μg/kg, thereafter, the same was repeated every 4 min; • 4) defibrillation: when cardiopulmonary resuscitation was performed for 8 min, 150 J electrical defibrillation was performed once; and • 5) if spontaneous circulation was not restored, cardiopulmonary resuscitation was immediately restarted for 2 min, followed by one time of defibrillation. This cycle was repeated for 5 times or less until the resuscitation was successful or declared to be failed. • 4. […]
# [2] = test system: model of cardiac arrest and resuscitation; assay: Cardiac function (PiCCO) and myocardial injury biomarker after resuscitation; conditions: 28.5 mg/kg i.v., P<0.05, FIG. 2
# Protocol: as §1, with “Right carotid artery was exposed by operation, superficial fascia was stripped off, a carotid blood flow sensor was arranged, and then a blood flow velocity ultrasonic recorder was connected to monitor the change of carotid blood flow (CBF) in real time. • 8. The animals' forehead hair was shaved off, to expose forehead skin. The forehead skin was cleaned with alcohol, and attached with a cerebral oxygen monitoring probe, and then a cerebral oxygen monitor was attached to monitor the change of regional cerebral oxygen saturation (rSO2) in real time. • 9. The body temperature of the animals was maintained at a normal temperature of about 38° C. all the time by using a temperature control blanket.” left out
# [3] = test system: model of cardiac arrest and resuscitation; assay: Cerebral function (NDS) and brain injury biomarkers after resuscitation; conditions: 28.5 mg/kg i.v., P<0.05, FIG. 3
# Protocol: (§2) • 1. Setting model conditions: 8 min of cardiac arrest and 8 min of cardiopulmonary resuscitation. • 2. Cardiac arrest method: inducing ventricular fibrillation by right ventricular electrode discharge, and observing for 8 min without intervention. • 3. […]
# (§3) • 1. Changes in physiological indexes such as heart rate, blood pressure, ETCO2, CBF, rSO2, and body temperature were dynamically monitored throughout the experiment, and the survival outcomes of the animals at 4 h and 24 h were recorded. • 2. During cardiopulmonary resuscitation, the changes in CPP, ETCO2, CBF, and rSO2 were continuously monitored dynamically, and the duration of cardiopulmonary resuscitation, number of defibrillation, dosage of adrenaline, and rate of return of spontaneous circulation of various groups of animals were recorded. • 3. Before modeling and at 1 h, 2 h, and 4 h after resuscitation, the changes in cardiac function such as SV and GEF were periodically detected by using a PiCCO monitor. • 4. […] The blood plasma was frozen and stored in a −80° C. deep hypothermia freezer, and serum levels of myocardial injury biomarker cardiac troponin I (cTnI), brain injury biomarker neuron specific enolase (NSE) and S100B protein (S100B), renal and intestinal injury biomarker creatinine (Cr) and intestinal fatty acid-binding protein (iFABP) were detected by using an enzyme-linked immunosorbent assay at selected time. • 5. […]
# [4] = test system: model of cardiac arrest and resuscitation; assay: Renal and intestinal injury biomarkers after resuscitation; conditions: 28.5 mg/kg i.v., P<0.05, FIG. 4
# Protocol: as §2, §3
# [5] = test system: model of cardiac arrest and resuscitation; assay: Cell apoptosis in heart, brain, kidney and intestine by TUNEL after resuscitation; conditions: at 24 h after resuscitation, 28.5 mg/kg i.v., P<0.05, FIG. 5
# Protocol: as §2, §3
# [6] = during cardiopulmonary resuscitation, almost all time points, 28.5 mg/kg i.v., P<0.05, FIG. 1
# [7] = in words, 28.5 mg/kg i.v., P<0.05
# [8] = pigs, sodium octanoate 28.5 mg/kg intravenously at start of CPR, n=8, P<0.05 vs CPR group
# [9] = pigs, sodium octanoate 28.5 mg/kg intravenously at start of CPR, P<0.05 vs CPR group
# [10] = starting 1 h after resuscitation
compound,measurement,setting,value
"CCCCCCCC(=O)[O-].[Na+] [SO, sodium octanoate]",CBF (carotid blood flow) compared with the CPR group,[1]; [6],obviously higher
same,CPP (coronary perfusion pressure) compared with the CPR group,[1]; [6],obviously higher
same,ETCO2 (partial pressure of end-tidal carbon dioxide) compared with the CPR group,[1]; [6],obviously higher
same,rSO2 (regional cerebral oxygen saturation) compared with the CPR group,[1]; [6],obviously higher
same,Dosage of adrenaline compared with the CPR group,[1]; [7],decreased
same,Duration of cardiopulmonary resuscitation compared with the CPR group,[1]; [7],shortened
same,Number of defibrillation compared with the CPR group,[1]; [7],reduced
same,Rate of return of spontaneous circulation compared with the CPR group,[1]; [7],increased
same,Survival rates at 4 h and 24 h post-resuscitation compared with the CPR group,[1]; [7],increased
same,Duration of cardiopulmonary resuscitation,"[1]; pigs, 8 min cardiac arrest, sodium octanoate 28.5 mg/kg intravenously at start of CPR, n=8, P<0.05 vs CPR group",8.00 ± 0.00 min
same,Dosage of adrenaline,[1]; [8],1.59 ± 0.08 mg
same,Number of defibrillation,[1]; [8],1.00 ± 0.00 n
same,4-h survival,[1]; [9],8/8^#
same,24-h survival,[1]; [9],8/8^#
same,Return of spontaneous circulation,[1]; [9],8/8^#
same,GEF (global ejection fraction) compared with the CPR group,[2]; [10],obviously higher
same,SV (stroke volume) compared with the CPR group,[2]; [10],obviously higher
same,Serum level of cTnI (cardiac troponin I) compared with the CPR group,[2]; starting 4 h after resuscitation,markedly lower
same,Serum level of S100B compared with the CPR group,"[3]; at 1 h, 2 h, and 24 h after resuscitation",remarkably reduced
same,Serum level of NSE (neuron specific enolase) compared with the CPR group,[3]; at 4 h and 24 h after resuscitation,remarkably reduced
same,NDS (neurological deficit score) compared with the CPR group,[3]; at 24 h after resuscitation,remarkably lower
same,Serum levels of Cr (creatinine) compared with the CPR group,[4]; at 2 h and 24 h after resuscitation,remarkably reduced
same,Serum level of iFABP (intestinal fatty acid-binding protein) compared with the CPR group,[4]; at 24 h after resuscitation,remarkably reduced
same,"Cell apoptosis of various organs (heart, brain, kidney, intestine; TUNEL) compared with the CPR group",[5],remarkably reduced

# From patent publication US12521361B2, “Use of sodium octanoate in preparation of medicine for improving the efficacy of cardiopulmonary resuscitation and post-resuscitation multiple organ dysfunction” (ZHEJIANG UNIVERSITY, priority 2021, dated 2026)
